Patent publication US8546443B2, “Benzylic oxindole pyrimidines” (Boehringer Ingelheim International GmbH, priority 2010, dated 2013)

Target: T1, cytoplasmic kinase domain of human IGF-1R (IGF-1R-GST) (Homo sapiens, UniProt P08069)
T1 construct: cytoplasmic kinase domain of human IGF-1R (amino acids 964-1370); GST (glutathione-S-transferase); made in house; host or cells: High Five insect cells (Invitrogen)
Assay: Insulin-like growth factor-1 receptor (IGF-1R) kinase assay (DELFIA)
Format: biochemical
Settings: IGF-1R-GST kinase activity, read-out: IGF1R IC50
Description: Insulin-Like Growth Factor-1 Receptor (IGF-1R)-Kinase Assay
The kinase activity is measured by DELFIA® assay (dissociation-enhanced lanthanide fluorescence immunoassay, Perkin Elmer). […] Enzyme activity is measured in the presence of substances and a control substance. Poly-glutamate-tyrosine peptide (pEY, Sigma Aldrich) and biotinylated pEY (bio-pEY) are used as reaction substrates.
After 40 min at RT the reactions are stopped with 50 μL of stop solution (250 mM EDTA, 20 mM HEPES pH 7.4). 90 μL from each reaction are transferred onto streptavidin-coated 96-well plates. After 120 min incubation at RT the plates are washed three times with 200 μL phosphate-buffered saline (PBS) per well. The plates are incubated for 60 min with 100 μL of europium-coupled antibody against phospho-tyrosine (diluted 1/2000 in Perkin Elmer DELFIA assay buffer) per well. The plates are washed three times with 200 μL per well of DELFIA washing buffer. 100 μL DELFIA Enhancement Solution (Perkin Elmer) is added to each well, and the plates are incubated for 10 min. The fluorescence signal is measured with a Wallac Victor TRF Reader. IC50 values for the inhibition of the IGF-1R-kinase activity are calculated using the programmes Fifty (Version 2) and GraphPad (Version 3.0).

T1 sequence (P08069 964-1367 limits assumed): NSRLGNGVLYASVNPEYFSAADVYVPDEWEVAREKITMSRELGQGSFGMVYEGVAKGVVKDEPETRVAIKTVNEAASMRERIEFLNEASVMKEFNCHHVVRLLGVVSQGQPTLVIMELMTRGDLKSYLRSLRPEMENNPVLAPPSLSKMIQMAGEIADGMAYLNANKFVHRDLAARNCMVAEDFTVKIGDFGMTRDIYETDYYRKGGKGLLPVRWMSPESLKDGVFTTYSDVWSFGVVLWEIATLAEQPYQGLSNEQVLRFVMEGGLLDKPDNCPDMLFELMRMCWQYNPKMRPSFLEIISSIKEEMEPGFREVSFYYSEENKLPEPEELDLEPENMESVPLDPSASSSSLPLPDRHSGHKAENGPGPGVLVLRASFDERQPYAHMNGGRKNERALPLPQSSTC

With CCN1CCN(c2ccc(Nc3ncc(C(F)(F)F)c(NCc4cccc5c4C(C)(C)C(=O)N5)n3)c(OC)c2)C[C@H]1C [Example I-107] as the compound, how does the IC50 read?
Its IC50 is 0.62 nM.

COc1cc(N2CCN(C)[C@H](C)C2)ccc1Nc1ncc(C(F)(F)F)c(NCc2cccc3c2C(C)(C)C(=O)N3)n1 [Example I-108] was tested. Which IC50 did it give?
Its IC50 is 0.93 nM.

For COc1cc(N2CCN(C3CCC3)[C@H](C)C2)ccc1Nc1ncc(C(F)(F)F)c(NCc2cccc3c2C(C)(C)C(=O)N3)n1 [Example I-109], which IC50 is on record?
Its IC50 is 0.87 nM.

COc1cc(N2CCN(C3CCN(C(C)=O)CC3)CC2)ccc1Nc1ncc(C(F)(F)F)c(NCc2cccc3c2CC(=O)N3)n1 [Example I-110] was tested. Which IC50 did it give?
The IC50 was 8 nM.

For COc1cc(N2CCN(C3CCN(C(C)C)CC3)CC2)ccc1Nc1ncc(C(F)(F)F)c(NCc2cccc3c2CC(=O)N3)n1 [Example I-111], which IC50 is on record?
Its IC50 is 18 nM.

With COc1cc(N2CCN(C3CCN(C4CC4)CC3)CC2)ccc1Nc1ncc(C(F)(F)F)c(NCc2cccc3c2CC(=O)N3)n1 [Example I-112] as the compound, how does the IC50 read?
Its IC50 is 5 nM.

COc1cc(N2CCN(C3CCN(CC#N)CC3)CC2)ccc1Nc1ncc(C(F)(F)F)c(NCc2cccc3c2CC(=O)N3)n1 [Example I-113] was tested. Which IC50 did it give?
The IC50 was 3 nM.

For CCN1CCC(N2CCN(c3ccc(Nc4ncc(C(F)(F)F)c(NCc5cccc6c5CC(=O)N6)n4)c(OC)c3)CC2)CC1 [Example I-114], which IC50 is on record?
Its IC50 is 4 nM.

With COc1cc(N2CCN(C3CCN(C4CCOCC4)CC3)CC2)ccc1Nc1ncc(C(F)(F)F)c(NCc2cccc3c2CC(=O)N3)n1 [Example I-115] as the compound, how does the IC50 read?
Its IC50 is 10 nM.

How did the IC50 turn out when COc1cc(N2CCN(C(C)C)CC2)ccc1Nc1ncc(C(F)(F)F)c(NCc2cccc3c2CC(=O)N3)n1 [Example I-116] was run?
Its IC50 is 10 nM.

Which IC50 does the source give for COc1cc(N2CCN(C3CCN(C)CC3)CC2)ccc1Nc1ncc(C(F)(F)F)c(NCc2cccc3c2CC(=O)N3)n1 [Example I-117] here?
The IC50 was 9 nM.

How did the IC50 turn out when COc1cc(N2CCN(C3CCOCC3)CC2)ccc1Nc1ncc(C(F)(F)F)c(NCc2cccc3c2CC(=O)N3)n1 [Example I-118] was run?
The IC50 was 11 nM.

Which IC50 does the source give for COc1cc(N2CCN(C)CC2)ccc1Nc1ncc(C(F)(F)F)c(NCc2cccc3c2CC(=O)N3)n1 [Example I-119] here?
Its IC50 is 11 nM.

Which IC50 does the source give for COc1cc(N2CCN(Cc3ccncc3)CC2)ccc1Nc1ncc(C(F)(F)F)c(NCc2cccc3c2CC(=O)N3)n1 [Example I-120] here?
The IC50 was 49 nM.

Which IC50 does the source give for COc1cc(N2CCN(C3CCN(CCO)CC3)CC2)ccc1Nc1ncc(C(F)(F)F)c(NCc2cccc3c2CC(=O)N3)n1 [Example I-121] here?
The IC50 was 16 nM.

With COCCN1CCC(N2CCN(c3ccc(Nc4ncc(C(F)(F)F)c(NCc5cccc6c5CC(=O)N6)n4)c(OC)c3)CC2)CC1 [Example I-122] as the compound, how does the IC50 read?
The IC50 was 15 nM.

With COc1cc(N2CCN(C3CCN(C(=O)N(C)C)CC3)CC2)ccc1Nc1ncc(C(F)(F)F)c(NCc2cccc3c2CC(=O)N3)n1 [Example I-123] as the compound, how does the IC50 read?
Its IC50 is 12 nM.

How did the IC50 turn out when COc1cc(N2CCN(C3CCN(S(=O)(=O)N(C)C)CC3)CC2)ccc1Nc1ncc(C(F)(F)F)c(NCc2cccc3c2CC(=O)N3)n1 [Example I-124] was run?
Its IC50 is 12 nM.

How did the IC50 turn out when COc1cc(N2CCN(C3CCN(S(C)(=O)=O)CC3)CC2)ccc1Nc1ncc(C(F)(F)F)c(NCc2cccc3c2CC(=O)N3)n1 [Example I-125] was run?
Its IC50 is 15 nM.

For COc1cc(N2CCN(C3CCOCC3)CC2)ccc1Nc1ncc(C(F)(F)F)c(NCc2cccc3c2C(C)(C)C(=O)N3C)n1 [Example I-126], which IC50 is on record?
The IC50 was 3 nM.

How did the IC50 turn out when COc1cc(N2CCN(C)CC2)ccc1Nc1ncc(C(F)(F)F)c(NCc2cccc3c2C(C)(C)C(=O)N3C)n1 [Example I-127] was run?
The IC50 was 3 nM.

With COc1cc(N2CCN(C(C)C)CC2)ccc1Nc1ncc(C(F)(F)F)c(NCc2cccc3c2C(C)(C)C(=O)N3C)n1 [Example I-128] as the compound, how does the IC50 read?
Its IC50 is 2 nM.

Which IC50 does the source give for CCN1CCN(c2ccc(Nc3ncc(C(F)(F)F)c(NCc4cccc5c4C(C)(C)C(=O)N5C)n3)c(OC)c2)CC1 [Example I-129] here?
Its IC50 is 2 nM.

How did the IC50 turn out when COc1cc(N2CCN(C3CCN(C)CC3)CC2)ccc1Nc1ncc(C(F)(F)F)c(NCc2cccc3c2C(C)(C)C(=O)N3C)n1 [Example I-130] was run?
The IC50 was 2 nM.

Which IC50 does the source give for COc1cc(N2CCN(CC3CC3)[C@H](C)C2)ccc1Nc1ncc(C(F)(F)F)c(NCc2cccc3c2C(C)(C)C(=O)N3)n1 [Example I-131] here?
Its IC50 is 0.33 nM.

How did the IC50 turn out when COc1cc(N2CCN(C3CCN(C)CC3)[C@H](C)C2)ccc1Nc1ncc(C(F)(F)F)c(NCc2cccc3c2C(C)(C)C(=O)N3)n1 [Example I-132] was run?
Its IC50 is 0.6 nM.

With CN1CCN(c2ccc(Nc3ncc(C(F)(F)F)c(NCc4cccc5c4C(C)(C)C(=O)N5)n3)cn2)CC1 [Example I-133] as the compound, how does the IC50 read?
The IC50 was 13 nM.

How did the IC50 turn out when CC(C)N1CCC(c2ccc(Nc3ncc(C(F)(F)F)c(NCc4cccc5c4C(C)(C)C(=O)N5)n3)cc2)CC1 [Example I-134] was run?
Its IC50 is 1 nM.

COc1cc(N2CCN(C3CCN(C)CC3)CC2)ccc1Nc1ncc(C(F)(F)F)c(NCc2cccc3c2C(C)(C)C(=O)N3)n1 [Example I-135] was tested. Which IC50 did it give?
Its IC50 is 0.57 nM.

How did the IC50 turn out when COc1cc(N2CCN(C(C)C)CC2)ccc1Nc1ncc(C(F)(F)F)c(NCc2cccc3c2C(C)(C)C(=O)N3)n1 [Example I-136] was run?
Its IC50 is 2 nM.

CCc1cc(Nc2ncc(C(F)(F)F)c(NCc3cccc4c3CC(=O)N4)n2)c(OC)cc1N1CCN(C(C)C)CC1 [Example I-137] was tested. Which IC50 did it give?
The IC50 was 65 nM.

Which IC50 does the source give for CCOc1cc(N2CCN(C)CC2)ccc1Nc1ncc(C(F)(F)F)c(NCc2cccc3c2CC(=O)N3)n1 [Example I-138] here?
Its IC50 is 13 nM.

Which IC50 does the source give for CCOc1cc(N2CCN(C(C)C)CC2)ccc1Nc1ncc(C(F)(F)F)c(NCc2cccc3c2CC(=O)N3)n1 [Example I-139] here?
Its IC50 is 8 nM.

CCOc1cc(N2CCN(CC)CC2)ccc1Nc1ncc(C(F)(F)F)c(NCc2cccc3c2CC(=O)N3)n1 [Example I-140] was tested. Which IC50 did it give?
The IC50 was 11 nM.

Which IC50 does the source give for CCOc1cc(N2CCN(C3COC3)CC2)ccc1Nc1ncc(C(F)(F)F)c(NCc2cccc3c2CC(=O)N3)n1 [Example I-141] here?
The IC50 was 19 nM.

With CCOc1cc(N2CCN(C)CC2)ccc1Nc1ncc(C(F)(F)F)c(NCc2cccc3c2C(C)(C)C(=O)N3)n1 [Example I-142] as the compound, how does the IC50 read?
The IC50 was 0.55 nM.

For CCOc1cc(N2CCN(C(C)C)CC2)ccc1Nc1ncc(C(F)(F)F)c(NCc2cccc3c2C(C)(C)C(=O)N3)n1 [Example I-143], which IC50 is on record?
The IC50 was 1 nM.

With CCOc1cc(N2CCN(CC)CC2)ccc1Nc1ncc(C(F)(F)F)c(NCc2cccc3c2C(C)(C)C(=O)N3)n1 [Example I-144] as the compound, how does the IC50 read?
Its IC50 is 0.81 nM.

How did the IC50 turn out when CCOc1cc(N2CCN(C3CCN(C)CC3)CC2)ccc1Nc1ncc(C(F)(F)F)c(NCc2cccc3c2C(C)(C)C(=O)N3)n1 [Example I-145] was run?
The IC50 was 0.67 nM.

Which IC50 does the source give for CCOc1cc(N2CCN(C3COC3)CC2)ccc1Nc1ncc(C(F)(F)F)c(NCc2cccc3c2C(C)(C)C(=O)N3)n1 [Example I-146] here?
Its IC50 is 4 nM.

With COc1cc(N2CC3CC2CN3C2CCN(C)CC2)ccc1Nc1ncc(C(F)(F)F)c(NCc2cccc3c2C(C)(C)C(=O)N3)n1 (stereo not drawn) [Example I-147] as the compound, how does the IC50 read?
The IC50 was 5 nM.

Which IC50 does the source give for COc1cc(N2CC3CC2CN3C2CCC2)ccc1Nc1ncc(C(F)(F)F)c(NCc2cccc3c2C(C)(C)C(=O)N3)n1 (stereo not drawn) [Example I-148] here?
Its IC50 is 3 nM.

COc1cc(N2CC3CC2CN3CC2CC2)ccc1Nc1ncc(C(F)(F)F)c(NCc2cccc3c2C(C)(C)C(=O)N3)n1 (stereo not drawn) [Example I-149] was tested. Which IC50 did it give?
The IC50 was 2 nM.

For COc1cc(N2CC3CC2CN3C2CCOCC2)ccc1Nc1ncc(C(F)(F)F)c(NCc2cccc3c2C(C)(C)C(=O)N3)n1 (stereo not drawn) [Example I-150], which IC50 is on record?
The IC50 was 3 nM.

With COc1cc(N2CC3CC2CN3C)ccc1Nc1ncc(C(F)(F)F)c(NCc2cccc3c2C(C)(C)C(=O)N3)n1 (stereo not drawn) [Example I-151] as the compound, how does the IC50 read?
Its IC50 is 2 nM.

With COc1cc(N2CC3CC2CN3C(C)C)ccc1Nc1ncc(C(F)(F)F)c(NCc2cccc3c2C(C)(C)C(=O)N3)n1 (stereo not drawn) [Example I-152] as the compound, how does the IC50 read?
The IC50 was 3 nM.

CCN1CC2CC1CN2c1ccc(Nc2ncc(C(F)(F)F)c(NCc3cccc4c3C(C)(C)C(=O)N4)n2)c(OC)c1 (stereo not drawn) [Example I-153] was tested. Which IC50 did it give?
Its IC50 is 2 nM.

COc1cc(N2CC3CC2CN3C2COC2)ccc1Nc1ncc(C(F)(F)F)c(NCc2cccc3c2C(C)(C)C(=O)N3)n1 (stereo not drawn) [Example I-154] was tested. Which IC50 did it give?
The IC50 was 13 nM.

For COc1cc(N2CCN(C3CCC3)CC2)ccc1Nc1ncc(C(F)(F)F)c(NCc2cccc3c2C(C)(C)C(=O)N3)n1 [Example I-155], which IC50 is on record?
Its IC50 is 1 nM.

With COc1cc(N2CCN(C3COC3)CC2)ccc1Nc1ncc(C(F)(F)F)c(NCc2cccc3c2C(C)(C)C(=O)N3)n1 [Example I-156] as the compound, how does the IC50 read?
Its IC50 is 4 nM.

How did the IC50 turn out when CCN1CCN(c2ccc(Nc3ncc(C(F)(F)F)c(NCc4cccc5c4C(C)(C)C(=O)N5)n3)c(OC)c2)CC1 [Example I-157] was run?
Its IC50 is 0.61 nM.

How did the IC50 turn out when COc1cc(N2CCN(C3CCN(C(C)=O)CC3)CC2)ccc1Nc1ncc(C(F)(F)F)c(NCc2cccc3c2C(C)(C)C(=O)N3)n1 [Example I-158] was run?
Its IC50 is 2 nM.

How did the IC50 turn out when COc1cc(C2CCN(C(C)C)CC2)ccc1Nc1ncc(C(F)(F)F)c(NCc2cccc3c2C(C)(C)C(=O)N3)n1 [Example I-159] was run?
Its IC50 is 0.41 nM.

With CN1CCC(c2ccc(Nc3ncc(Cl)c(NCc4cccc5c4C4(CC4)C(=O)N5)n3)cc2)CC1 [Example I-161] as the compound, how does the IC50 read?
The IC50 was 0.96 nM.

How did the IC50 turn out when COc1cc(N2CCN(CC3CC3)CC2)ccc1Nc1ncc(C(F)(F)F)c(NCc2cccc3c2C(C)(C)C(=O)N3)n1 [Example I-162] was run?
The IC50 was 2 nM.

For CCOC(=O)N1CCC(N2CCN(c3ccc(Nc4ncc(C(F)(F)F)c(NCc5cccc6c5C(C)(C)C(=O)N6)n4)c(OC)c3)CC2)CC1 [Example I-163], which IC50 is on record?
Its IC50 is 10 nM.

Which IC50 does the source give for COc1cc(N2CCN(Cc3ccco3)CC2)ccc1Nc1ncc(C(F)(F)F)c(NCc2cccc3c2C(C)(C)C(=O)N3)n1 [Example I-164] here?
Its IC50 is 14 nM.
